Some results are limits rather than exact numbers.

One test relates to Influenza type A (strain A/PR/8/34, ATCC VR-95). The test can be described thus: Influenza antiviral assay: inhibition of virus-induced cytopathic effects (CPE) in MDCK cells, XTT dye reduction. The test is classed as cell-based. The following applies: Influenza A (H1N1) replication in MDCK cells, CPE reduction by XTT at 4 days post-infection; read-out: Influenza H1N1 affinity, EC50. (In general: Protection from cytopathic effect is a common read-out in antiviral testing.)
As to `O=C(NCC1c2ccccc2COc2ccccc21)c1c(O)c(=O)ccn1CC1c2ccccc2COc2ccccc21` (stereo not drawn) [Compound 50], the EC50 (commonly the concentration giving half of the maximal effect) is 1 to 10 µM.

Staying with this test, now noted: Influenza A virus, H1N1 / PR/8, MDCK, 96 h, Influenza A (H1N1) replication in MDCK cells, CPE reduction by XTT at 4 days post-infection; read-out: Influenza H1N1 affinity, EC50.
In the case of `O=C(O)c1c(O)c(=O)ccn1NC1CCCOc2ccccc21` (stereo not drawn) [Compound 1], the EC50 lay in the range of 10 to 100 µM.
Same read-out and setting: next, `O=C(O)c1c(O)c(=O)ccn1NC1c2ccccc2COc2ccccc21` (stereo not drawn) [Compound 2, 1-((6,11-dihydrodibenzo[b,e]oxepin-11-yl)amino)-3-hydroxy-4-oxo-1,4-dihydropyridine-2-carboxylic acid]: 10 to 100 µM; `O=c1ccn(NC2c3ccccc3COc3ccccc32)cc1O` (stereo not drawn) [Compound 4]: more than 100 µM; `CN(C)C(=O)c1c(O)c(=O)ccn1NC1c2ccccc2COc2ccccc21` (stereo not drawn) [Compound 5]: more than 100 µM.
Still for that read-out and setting: then `CN(Cc1ccccc1)C(=O)c1c(O)c(=O)ccn1NC1c2ccccc2COc2ccccc21` (stereo not drawn) [Compound 6], with 1 to 10 µM.
Still for that read-out and setting: then `O=C(NCCOCCO)c1c(O)c(=O)ccn1NC1CCCNc2ccccc21` (stereo not drawn) [Compound 8], with more than 100 µM; and `COC(=O)c1c(O)c(=O)ccn1NC1CCCN(Cc2ccc(OC)cc2)c2ccccc21` (stereo not drawn) [Compound 9], with more than 100 µM.
Regarding `CC(C)NC(=O)c1c(O)c(=O)ccn1N(C)C1c2ccccc2COc2ccccc21` (stereo not drawn) [Compound 10], the EC50 is more than 100 µM.
The same measure, in the same setting: next, `O=C(Nc1ccccc1)c1c(O)c(=O)ccn1NC1c2ccccc2COc2ccccc21` (stereo not drawn) [Compound 11]: more than 100 µM.
Same read-out and setting: then `O=c1ccn(NC2CCOCc3ccccc32)cc1O` (stereo not drawn) [Compound 12], with more than 100 µM; and `O=C(Nc1cccc(C(F)(F)F)c1)c1c(O)c(=O)ccn1NC1c2ccccc2COc2ccccc21` (stereo not drawn) [Compound 13, 1-((6,11-dihydrodibenzo[b,e]oxepin-11-yl)amino)-3-hydroxy-4-oxo-N-(3-(trifluoromethyl)phenyl)-1,4-dihydropyridine-2-carboxamide], with 1 to 10 µM; and `O=C(NCCOCCO)c1c(O)c(=O)ccn1NC1CCCN(Cc2ccccc2)c2ccccc21` (stereo not drawn) [Compound 17], with more than 100 µM.
Same read-out and setting: next, `CN(C1c2ccccc2COc2ccccc21)n1ccc(=O)c(O)c1C(=O)NCc1ccccc1` (stereo not drawn) [Compound 18]: more than 100 µM; `O=C(Nc1cccc(O)c1)c1c(O)c(=O)ccn1NC1c2ccccc2COc2ccccc21` (stereo not drawn) [Compound 19]: more than 100 µM; `O=C(Nc1ccc(O)cc1)c1c(O)c(=O)ccn1NC1c2ccccc2COc2ccccc21` (stereo not drawn) [Compound 20]: more than 100 µM.
Regarding `O=C(Nc1cccc2ccccc12)c1c(O)c(=O)ccn1NC1c2ccccc2COc2ccccc21` (stereo not drawn) [Compound 21], the EC50 is more than 100 µM.
On to `O=C(NCc1ccc2ccccc2c1)c1c(O)c(=O)ccn1NC1c2ccccc2COc2ccccc21` (stereo not drawn) [Compound 22], for which the EC50 was 1 to 10 µM.
As for `O=C(NCc1ccc(-c2ccccc2)cc1)c1c(O)c(=O)ccn1NC1c2ccccc2COc2ccccc21` (stereo not drawn) [Compound 23, N-(Biphenyl-4-ylmethyl)-1-(6,11-dihydrodibenzo[b,e]oxepin-11-ylamino)-3-hydroxy-4-oxo-1,4-dihydropyridine-2-carboxamide], the EC50 was 1 to 10 µM.
As to `O=C(NCc1cccc2ccccc12)c1c(O)c(=O)ccn1NC1c2ccccc2COc2ccccc21` (stereo not drawn) [Compound 24], the half-maximal effective concentration (EC50) was more than 100 µM.
Regarding `CNC(=O)c1c(O)c(=O)ccn1N(C)C1c2ccccc2COc2ccccc21` (stereo not drawn) [Compound 25], the 50% effective concentration (EC50) is more than 100 µM.
Still for that read-out and setting: next, `COC(=O)c1c(O)c(=O)ccn1N(Cc1ccccc1)C1c2ccccc2COc2ccccc21` (stereo not drawn) [Compound 26]: more than 100 µM; `O=c1ccn(N(Cc2ccccc2)C2c3ccccc3COc3ccccc32)cc1O` (stereo not drawn) [Compound 27]: more than 100 µM.
The same measure, in the same setting: next, `CN(C1c2ccccc2COc2ccccc21)n1ccc(=O)c(O)c1` (stereo not drawn) [Compound 28]: more than 100 µM.
On the same count and under the same terms, then `O=C(NCc1cccc(O)c1)c1c(O)c(=O)ccn1NC1c2ccccc2COc2ccccc21` (stereo not drawn) [Compound 29], with more than 100 µM; and `O=C(Nc1cccc(-c2ccccc2)c1)c1c(O)c(=O)ccn1NC1c2ccccc2COc2ccccc21` (stereo not drawn) [Compound 30], with more than 100 µM; and `O=C(NCc1ccc(C(F)(F)F)cc1)c1c(O)c(=O)ccn1NC1c2ccccc2COc2ccccc21` (stereo not drawn) [Compound 31], with more than 100 µM.
As to `O=C(NCc1ccc(O)cc1)c1c(O)c(=O)ccn1NC1c2ccccc2COc2ccccc21` (stereo not drawn) [Compound 32], the EC50 was more than 100 µM.
Still for that read-out and setting: next, `O=C(NCc1cccc(-c2ccccc2)c1)c1c(O)c(=O)ccn1NC1c2ccccc2COc2ccccc21` (stereo not drawn) [Compound 33]: more than 100 µM; `CN(C1c2ccccc2COc2ccccc21)n1ccc(=O)c(O)c1C(=O)Nc1ccccc1` (stereo not drawn) [Compound 34]: more than 100 µM.
With `O=C(Nc1ccc(C(F)(F)F)cc1)c1c(O)c(=O)ccn1NC1c2ccccc2COc2ccccc21` (stereo not drawn) [Compound 35], the EC50 is more than 100 µM.
Still for that read-out and setting: next, `O=C(Nc1ccc(-c2ccccc2)cc1)c1c(O)c(=O)ccn1NC1c2ccccc2COc2ccccc21` (stereo not drawn) [Compound 36]: more than 100 µM; `O=C(NCc1cccc(C(F)(F)F)c1)c1c(O)c(=O)ccn1NC1c2ccccc2COc2ccccc21` (stereo not drawn) [Compound 37]: more than 100 µM.
Turning to `CNC(=O)c1c(O)c(=O)ccn1CC(c1ccccc1)c1ccccc1` [Compound 38], the EC50 was more than 100 µM.
Consider `CN(C(c1ccccc1)c1ccccc1)n1ccc(=O)c(O)c1` [Compound 39], for which the EC50 was more than 100 µM.
Still for that read-out and setting: next, `O=C(O)c1c(O)c(=O)ccn1NC1c2ccccc2SCc2c1ccc(F)c2F` (stereo not drawn) [Compound 40, 1-((7,8-difluoro-6,11-dihydrodibenzo[b,e]thiepin-11-yl)amino)-3-hydroxy-4-oxo-1,4-dihydropyridine-2-carboxylic acid]: 1 to 10 µM; `CNC(=O)c1c(O)c(=O)ccn1NC1c2ccccc2SCc2c1ccc(F)c2F` (stereo not drawn) [Compound 41]: more than 100 µM.
Turning to `O=C(NCC(F)(F)F)c1c(O)c(=O)ccn1NC1c2ccccc2SCc2c1ccc(F)c2F` (stereo not drawn) [Compound 42, 1-((7,8-difluoro-6,11-dihydrodibenzo[b,e]thiepin-11-yl)amino)-3-hydroxy-4-oxo-N-(2,2,2-trifluoroethyl)-1,4-dihydropyridine-2-carboxamide], the EC50 fell in the range of 1 to 10 µM.
On the same count and under the same terms, then `O=c1ccn(NC2c3ccccc3SCc3c2ccc(F)c3F)cc1O` (stereo not drawn) [Compound 43, 1-((7,8-difluoro-6,11-dihydrodibenzo[b,e]thiepin-11-yl)amino)-3-hydroxypyridin-4(1H)-one], with more than 100 µM; and `CNC(=O)c1c(O)c(=O)ccn1NC1CCN(Cc2ccccc2)c2ccccc21` (stereo not drawn) [Compound 44], with more than 100 µM.
`CNC(=O)c1c(O)c(=O)ccn1NC1CCN(C)c2ccccc21` (stereo not drawn) [Compound 45]: the half-maximal effective concentration (EC50) was more than 100 µM.
Consider `CNC(=O)c1c(O)c(=O)ccn1NC1CCCN(C)c2ccccc21` (stereo not drawn) [Compound 46], for which the EC50 is more than 100 µM.
The same measure, in the same setting: next, `O=C(Nc1ccc2ccccc2c1)c1c(O)c(=O)ccn1NC1c2ccccc2COc2ccccc21` (stereo not drawn) [Compound 47]: more than 100 µM.
Still for that read-out and setting: then `O=C(Nc1cccc(C(F)(F)F)c1)c1c(O)c(=O)ccn1CC1c2ccccc2COc2ccccc21` (stereo not drawn) [Compound 48], with more than 100 µM; and `O=C(Nc1ccccc1)c1c(O)c(=O)ccn1CC1c2ccccc2COc2ccccc21` (stereo not drawn) [Compound 49], with more than 100 µM.
The same measure, in the same setting: then `O=C(NCc1ccccc1)c1c(O)c(=O)ccn1CC1c2ccccc2COc2ccccc21` (stereo not drawn) [Compound 51], with more than 100 µM.
Regarding `CNC(=O)c1c(O)c(=O)ccn1CC1c2ccccc2COc2ccccc21` (stereo not drawn) [Compound 52], the EC50 is more than 100 µM.
Still for that read-out and setting: next, `CNC(=O)c1c(O)c(=O)ccn1NC1CCCN(Cc2ccccc2)c2ccccc21` (stereo not drawn) [Compound 54]: more than 100 µM; `CNC(=O)c1c(O)c(=O)ccn1NC1CCOCc2ccccc21` (stereo not drawn) [Compound 56]: more than 100 µM.
`CN(Cc1ccccc1)C(=O)c1c(O)c(=O)ccn1CC1c2ccccc2COc2ccccc21` (stereo not drawn) [Compound 57]: the concentration for a half-maximal effect (EC50) is more than 100 µM.
Same read-out and setting: next, `O=C(O)c1c(O)c(=O)ccn1NC1c2cc(Cl)ccc2COc2ccc(Cl)cc21` (stereo not drawn) [Compound 58, 1-((2,9-dichloro-6,11-dihydrodibenzo[b,e]oxepin-11-yl)amino)-3-hydroxy-4-oxo-1,4-dihydropyridine-2-carboxylic acid]: 10 to 100 µM; `O=C(O)c1c(O)c(=O)ccn1NC1c2ccccc2CSc2ccccc21` (stereo not drawn) [Compound 59]: 10 to 100 µM.
Still for that read-out and setting: then `O=C(O)c1c(O)c(=O)ccn1NC1c2ccccc2COc2cc(Cl)c(Cl)cc21` (stereo not drawn) [Compound 60], with 10 to 100 µM; and `CNC(=O)c1c(O)c(=O)ccn1NC(c1ccccc1)c1ccccc1` [Compound 61], with more than 100 µM.
With `O=C(O)c1c(O)c(=O)ccn1NC1c2ccccc2OCc2c(F)cccc21` (stereo not drawn) [Compound 66], the 50% effective concentration (EC50) lay in the range of 10 to 100 µM.
As to `O=C(O)c1c(O)c(=O)ccn1NC(c1ccccc1)c1ccccc1` [Compound 67], the half-maximal effective concentration (EC50) was more than 100 µM.
As for `O=C(O)c1c(O)c(=O)ccn1NC(c1cccc2ccccc12)c1cccc2ccccc12` [Compound 68], the 50% effective concentration (EC50) is more than 100 µM.
The same measure, in the same setting: next, `CNC(=O)c1c(O)c(=O)ccn1NC(c1cccc2ccccc12)c1cccc2ccccc12` [Compound 69]: more than 100 µM.
Consider `CNC(=O)c1c(O)c(=O)ccn1N(Cc1ccccc1)C1c2ccccc2COc2ccccc21` (stereo not drawn) [Compound 72], for which the concentration for a half-maximal effect (EC50) is more than 100 µM.
For the compound `O=C(O)c1cn(CC2c3ccccc3COc3ccccc32)c(C(=O)O)c(O)c1=O` (stereo not drawn) [Compound 73], the concentration for a half-maximal effect (EC50) is more than 100 µM.
Still for that read-out and setting: next, `CNC(=O)c1c(O)c(=O)ccn1NC1c2ccccc2OCc2c(F)cccc21` (stereo not drawn) [Compound 74]: more than 100 µM; `O=C(O)c1c(O)c(=O)ccn1NC1c2ccccc2OCc2c1ccc(F)c2F` (stereo not drawn) [Compound 75]: 10 to 100 µM.

The same test, now with this note: Influenza A virus, H1N1 / PR/8, MDCK, 96 h, read-out: Influenza H1N1 affinity, EC50.
As to `CNC(=O)c1cn(CC2c3ccccc3COc3ccccc32)c(C(=O)NC)c(O)c1=O` (stereo not drawn) [Compound 65, 1-((6,11-dihydrodibenzo[b,e]oxepin-11-yl)methyl)-3-hydroxy-N2,N5-dimethyl-4-oxo-1,4-dihydropyridine-2,5-dicarboxamide], the half-maximal effective concentration (EC50) was more than 100 µM.

Values taken from patent US12565488B2, “Inhibitors of influenza virus replication” (COCRYSTAL PHARMA, INC., priority 2018, dated 2026).
